Test results from US11596632B2, “JAK1 pathway inhibitors for the treatment of gastrointestinal disease” (Incyte Corporation, priority 2018, dated 2023).
Entries after “also recorded” stand apart in the source; their conditions may differ.

Assays:
[1] = tested on: oxazolone-induced colitis in BALB/c mice; assay: Mouse oxazolone-induced colitis model; assay type: in vivo
[2] = tested on: IL-6 stimulated phosphorylated STAT3 in whole blood; assay: IL-6 stimulated STAT3 phosphorylation in whole blood; assay type: cell-based; details: Homo sapiens, IL-6 stimulated pSTAT3, read-out: ex vivo whole blood IC50
Procedure: (§1) To assess the inhibitory activity of Compound 1 in serum-rich media, e.g., plasma or whole blood, the assay is conducted using whole blood; briefly, the whole blood sample is stimulated with IL-6 and levels of phosphorylated STAT3 are determined. This assay can be conducted either in vitro (human blood samples are spiked with Compound 1) or ex vivo (whole blood samples collected from human subjects dosed with Compound 1).

[3] = tested on: IL-6-induced STAT3 phosphorylation; assay: Ex vivo IL-6-induced STAT3 phosphorylation in dosed patients (marker of JAK1 inhibition); parameters: species or system human; details: 100 mg QD to 600 mg QD
Procedure: as §1
The systemic effects of Compound 1 have been studied in the auto-immune diseases RA and Ps. Inhibition of phosphorylation of STAT3 following stimulation with IL-6, a marker of AK1 inhibition, and TPO, a marker of JAK2 inhibition was measured in both studies. In patients with Ps doses of 100 mg QD, 200 mg QD, 200 mg BID, and 600 mg QD were studied.

[4] = tested on: IL-6 stimulated phosphorylation of STAT3 in PBMCs; assay: IL-6 stimulated STAT3 phosphorylation in human PBMC; assay type: cell-based; details: read-out: in vitro IC50 for suppression of IL-6 stimulated phosphorylation of STAT3 in PBMCs (JAK1 inhibition)
Procedure: Two different assays can be used to understand the functional activity of JAK1 inhibition. The first is a standard cell based assay and the other using whole blood. The former is conducted using human peripheral blood mononuclear cells (PBMC); briefly, the cells are stimulated with IL-6 to increase JAK1 activity, which is measured via phosphorylated STAT3. As increasing concentrations of Compound 1 are added, a corresponding decrease in phosphorylated STAT3 is observed. This assay is appropriate to assess JAK1 activity and/or the inhibitory activity of Compound 1 in samples that are devoid of serum proteins, e.g., feces samples.

[5] = target: human JAK1 (a.a. 837-1142) (Homo sapiens (Human), UniProt P23458); assay: In vitro JAK kinase assay (HTRF), JAK1; assay type: biochemical; details: 1 mM ATP
Procedure: The catalytic activity of JAK1, JAK2 or JAK3 was assayed by measuring the phosphorylation of a biotinylated peptide. The phosphorylated peptide was detected by homogenous time resolved fluorescence (HTRF). […] Reactions are carried out at room temperature for 1 hour and then stopped with 20 μL 45 mM EDTA, 300 nM SA-APC, 6 nM Eu-Py20 in assay buffer (Perkin Elmer, Boston, Mass.). Binding to the Europium labeled antibody takes place for 40 minutes and HTRF signal was measured on a Fusion plate reader (Perkin Elmer, Boston, Mass.).

[6] = Circulating and colon tissue drug concentrations in mice, oral vs intracolonic; assay type: in vivo, mouse
Source text: Preclinical models of IBD were established in BALB/c mice by intracolonic injection of 2,4,6-trinitrobenzene sulfonic acid (TNBS) or 4-ethoxymethylene-2-phenyl-2-oxazolin-5-one (oxazolone) to trigger an immune response, as described below. Body weight, stool consistency and fecal blood were scored. Additional readouts included colon weight to length ratio and histological evaluation. Blood was collected for pharmacokinetic analysis.
In a further study, quantification of circulating and tissue drug concentrations clearly differentiated the local versus systemic JAK1 target inhibition. […] In contrast, localized Compound 1 delivery was characterized by minimal peak systemic concentrations of approximately 0.04 μM but sustained exposure ≥0.45 μM in the colon tissue, as shown in FIG. 11D. Therefore, strategic targeting or release of JAK1 inhibitors within the inflamed gastrointestinal tissue can potentially achieve improved benefit-risk profiles.

[7] = localized intracolonic delivery (3 mg/kg)

Sequence of human JAK1 (a.a. 837-1142) (P23458 837-1142): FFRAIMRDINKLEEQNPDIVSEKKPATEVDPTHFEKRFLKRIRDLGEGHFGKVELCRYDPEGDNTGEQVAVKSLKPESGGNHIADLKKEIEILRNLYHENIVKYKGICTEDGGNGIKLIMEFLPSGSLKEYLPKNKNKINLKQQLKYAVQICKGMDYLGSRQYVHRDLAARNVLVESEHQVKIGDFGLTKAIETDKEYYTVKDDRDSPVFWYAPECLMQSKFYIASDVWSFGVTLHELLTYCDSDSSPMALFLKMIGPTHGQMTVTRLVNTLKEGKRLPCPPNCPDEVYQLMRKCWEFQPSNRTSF

What does the source list for `N#CCC1(n2cc(-c3ncnc4[nH]ccc34)cn2)CN(C2CCN(C(=O)c3ccnc(C(F)(F)F)c3F)CC2)C1` [Compound 1, {1-{1-[3-Fluoro-2-(trifluoromethyl)isonicotinoyl]piperidin-4-yl}-3-[4-(7H-pyrrolo[2,3-d]pyrimidin-4-yl)-1H-pyrazol-1-yl]azetidin-3-yl}acetonitrile]?
colon shortening ([1]; 3 mg/kg IC BID): significantly ameliorated colon shortening; also recorded: significantly (p<0.05) reduced colon shortening; macroscopic tissue pathology ([1]; 30 mg/kg BID oral): ameliorating macroscopic tissue pathology; normalized colon weight (inflammatory swelling) ([1]; 30 mg/kg BID oral): reducing normalized colon weight; recovery from diarrhea and rectal bleeding (symptoms) ([1]; 30 mg/kg BID oral): reduces symptoms; also recorded: efficacious in accelerating recovery from diarrhea and rectal bleeding; colon shortening ([1]; 30 mg/kg PO BID): significantly ameliorated colon shortening; also recorded: significant (p<0.05) reduction in colon shortening; stool consistency and fecal occult blood scoring ([1]; twice daily, orally or intracolonically, vs vehicle): significantly ameliorated stool consistency and reduced fecal occult blood scoring; IC50 [2]: 141 nM; inhibition of IL-6 induced pSTAT3 ([3]; RA patients, Cycle 1 Day 15): general trend of dose-dependent inhibition of IL-6 induced pSTAT3; inhibition of pSTAT3 in response to IL-6 stimulation ex vivo ([3]; psoriasis patients): concentration dependent inhibition of pSTAT3; IC50 [4]: 58 nM; IC50 [5]: < 10 nM; systemic drug exposure relative to JAK1 IC50 ([6]; intracolonic doses): below JAK1 IC50; peak systemic concentrations [6, 7]: approximately 0.04 μM; sustained exposure in the colon tissue [6, 7]: ≥ 0.45 µM; peak circulating drug level ([6]; oral dosing (30 mg/kg)): approximately 11 μM
